Data taken from paper PMC12191924, “A new naphthalene-based fluorogenic substrate for cytochrome P450 4A11” (Biochemical Journal, 2025).
Several values for one entry are separate records, joined by “and”; a condition that tells them apart may be missing. Equal values may be shown once.

Assays:
[1] = biological target: T1, CYP2C8 (Homo sapiens, UniProt P10632); experiment: MONACRA demethylation by recombinant CYP2C8 in Supersomes, high-throughput fluorimetric assay; type: biochemical
T1 construct: purchased Gentest (Huntsville, AL), now a part of Discovery Life Sciences lot 81760; host or cells: insect cells, recombinant baculovirus
T1 sequence (P10632 1-490): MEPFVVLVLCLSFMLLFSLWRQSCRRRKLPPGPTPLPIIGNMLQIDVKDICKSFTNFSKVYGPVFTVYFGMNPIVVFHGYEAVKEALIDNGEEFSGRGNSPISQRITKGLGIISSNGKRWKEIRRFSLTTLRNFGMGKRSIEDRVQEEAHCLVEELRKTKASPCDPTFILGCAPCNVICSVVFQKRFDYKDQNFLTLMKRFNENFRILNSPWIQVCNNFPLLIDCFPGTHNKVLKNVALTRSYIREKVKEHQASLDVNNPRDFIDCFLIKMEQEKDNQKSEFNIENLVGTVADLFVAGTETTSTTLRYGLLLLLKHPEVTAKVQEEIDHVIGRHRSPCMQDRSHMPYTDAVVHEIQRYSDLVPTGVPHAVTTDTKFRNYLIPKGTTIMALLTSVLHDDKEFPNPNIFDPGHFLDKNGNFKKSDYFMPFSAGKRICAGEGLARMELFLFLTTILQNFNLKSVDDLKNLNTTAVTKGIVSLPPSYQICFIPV
Protocol: (§1) Based on these observations, we developed a high-throughput automated assay applicable for studying SSPs of MONACRA metabolism by microsomal P450 enzymes. In this procedure, the incubation mixtures containing an NADPH-generating system and various substrate concentrations are placed in a multiwell plate and preincubated at 30°C in a thermostated shaker. The reaction is started by adding microsomal suspension to the final concentration of 0.3–1 mg/ml of microsomal protein or 0.02–0.1 µM of recombinant P450 enzymes in Supersomes. Following the incubation for 20 min at 30°C, the reaction is quenched by adding trichloroacetic acid (final concentration […]). After supplementing the wells with Na-glycine buffer (pH 10.4, final concentration 2.1 M), the plates are subjected to scanning the fluorescence spectra with excitation at 375 nm. This assay, which is described in detail in Materials and Methods, allows reliable detection of the concentrations of HONACRA as low as 0.1 µM.
(§2) We used the high-throughput activity assay described above to probe MONACRA metabolism by 16 human microsomal P450 enzymes, namely CYP1A2, CYP2A6, CYP2B6, CYP2C8, CYP2C9, CYP2C19, CYP2D6, CYP2E1, CYP2J2, CYP3A4, CYP3A5, CYP4A11, CYP4F2, CYP4F3A, CYP4F3B, and CYP4F12. […]

[2] = biological target: T2, CYP1A2 (Homo sapiens, UniProt P05177); experiment: MONACRA demethylation by recombinant CYP1A2 in Supersomes, high-throughput fluorimetric assay; type: biochemical; parameters: purchased Gentest (Supersomes), now a part of Discovery Life Sciences; CYP1A2 is not in the lot list; host or cells: insect cells, recombinant baculovirus
T2 sequence (P05177 2-516 limits assumed): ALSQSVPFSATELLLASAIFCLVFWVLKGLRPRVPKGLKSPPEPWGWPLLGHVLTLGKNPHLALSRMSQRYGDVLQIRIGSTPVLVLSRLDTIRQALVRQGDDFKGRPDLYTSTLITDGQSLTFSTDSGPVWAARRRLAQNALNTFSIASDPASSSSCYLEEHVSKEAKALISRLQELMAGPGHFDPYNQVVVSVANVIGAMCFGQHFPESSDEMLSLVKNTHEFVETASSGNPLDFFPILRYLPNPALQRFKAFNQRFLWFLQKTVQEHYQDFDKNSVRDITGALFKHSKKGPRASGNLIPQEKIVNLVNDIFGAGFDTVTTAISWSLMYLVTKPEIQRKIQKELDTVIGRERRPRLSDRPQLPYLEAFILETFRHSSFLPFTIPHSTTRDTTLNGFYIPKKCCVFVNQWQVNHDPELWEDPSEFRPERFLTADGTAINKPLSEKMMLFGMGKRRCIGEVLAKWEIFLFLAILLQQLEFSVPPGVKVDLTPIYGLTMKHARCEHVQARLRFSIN
Protocol: as §1, §2

## COc1ccc2cc(C=CC(=O)O)ccc2c1 [MONACRA, 3-(6-methoxynaphthalen-2-yl)acrylic acid]
[1]
  rate of MONACRA metabolism by CYP2C8: negligibly small
[2]; substrate inhibition equation
  Vmax: 43.7 ± 5.9 min⁻¹
[2]; substrate inhibition equation (eqn 2)
  Ksi (substrate inhibition constant): 650 ± 200 µM and 648 ± 197 µM
